According to US4193997A, “Thieno[2,3-c] and [3,2-c]pyridines, process for their preparation and therapeutic applications thereof” (Parcor, priority 1977, dated 1980):

Columns and labels:
[1] = system: A.D.P.-induced blood-platelet aggregation; assay: A.D.P.-induced blood-platelet aggregation after oral treatment of rats; assay type: in vivo, Wistar rats; conditions: Rattus norvegicus, 100 mg/kg oral, 3 hrs after treatment, 10 μM A.D.P. solution, read-out: Percent inhibition of blood-platelet aggregation, A.D.P.
Procedure: (§1) Blood is taken from the jugular vein of Wistar rats. From this citrated blood, and after centrifugation, a plasma containing 600,000±20,000 blood-platelets per mm 3 is reconstituted, which plasma is used in all aggregation determinations.
(§2) 0.4 ml plasma is placed in a siliconized tube provided with a magnet bar which is also siliconized. The tube is introduced into an aggregometer connected to an apparatus which records the optical density variations. When light transmission reaches a stable value, 0.5 ml of a solution containing 10 μM A.D.P. (adenosine diphosphate) is introduced into the tube.
Blood-platelet aggregation then induces an increase of light transmission, followed by a decrease subsequent to the disaggregation stage.
The maximal optical density variation thus determined characterizes the extent of the aggregation.
(§3) Different groups of 20 rats each are used. Each group is orally administered a test derivative, at a dosage of 100 mg/kg. The results obtained during both tests are reported in following Table I which indicates the percent inhibition of blood-platelet aggregation obtained with respect to the reference group, 3 hrs after treatment.

[2] = system: collagen-induced blood-platelet aggregation; assay: Collagen-induced blood-platelet aggregation after oral treatment of rats; assay type: in vivo, Wistar rats; conditions: Rattus norvegicus, 100 mg/kg oral, 3 hrs after treatment, collagen (bovine tendon extract), read-out: Percent inhibition of blood-platelet aggregation, Collagen
Procedure: as §1, §2
The A.D.P. solution is substituted with a collagen solution (bovine tendon extract).
as §3

Red blood cells [3] = assay: Anti-sludge in vitro, "preventive" treatment (protamine sulfate agglomeration of red blood cells); assay type: cell-based, rats; conditions: for percent agglomerates formed by 5 RBC: controls 6 or 8; for percent agglomerates formed by 4 RBC: controls 9 or 8; for percent agglomerates formed by 3 RBC: controls 13 or 14; for percent agglomerates formed by 2 RBC: controls 17 or 16; for percent free red blood cells (size 1): controls 32 (n°3, 4, 6) or 30 (n°11, 12, 17)
Procedure: (§4) Red blood cells of rats are washed three times and diluted to 1/250 concentration in physiological saline. In each of 5 tubes are placed 0.6 ml of this suspension and 0.2 ml physiological saline. Into each tube is then added, respectively, an amount of 0, 25, 50, 100 and 200 μg of the test derivative contained in 0.2 ml of solution. After incubation for one hour at 37° C., 0.2 ml of a solution containing 125 μg/ml protamine sulfate is added thereto, and the resulting material is further incubated for 0.5 hour at 37° C. The red blood cells of each tube are then examined with a Mallasez cell, and the percent free red blood cells (RBC) and the percent agglomerates formed by 2, 3, 4, 5 . . . RBC are noted.

Red blood cells [4] = assay: Anti-sludge in vitro, "curative" procedure (protamine sulfate agglomeration of red blood cells); assay type: cell-based, rats; conditions: 25 μg; for percent aggregates, size of agglomerates 4: reference tests 11; for percent aggregates, size of agglomerates 3: reference tests 15 or 16; for percent aggregates, size of agglomerates 2: reference tests 19; for percent aggregates, size of agglomerates 1: reference tests 33 (n°3, 4, 6) or 30 (n°11, 12, 17)
Procedure: as §4
The test was repeated according to a "curative" procedure. The red blood cells were first contacted with the protamine sulfate and, after incubation for 0.5 hour, 0.2 ml containing 25 μg of the test derivative were added thereto, after which the material was further incubated for one hour at 37° C.

mouse = assay: Antalgic action, mechanical stimulation method according to Haffner; assay type: in vivo; conditions: 100 mg/kg oral
Procedure: (a) Mechanical stimulation method according to Haffner (Deutsch. Wish., 1959, 55, 731-733). This method comprises placing a pressure forceps at the base of the tail of a mouse and recording the number of bites self-inflicted by the animal in its endeavour to remove the forceps. The decrease of the number of bites prior and subsequent to oral administration of the test compound at a dosage of 100 mg/kg provides a measure of the antalgic activity of the derivatives of this invention.

mice = assay: Antalgic action, acetic acid method according to Koster, Anderson & de Beer; assay type: in vivo; conditions: 100 mg/kg oral, 30 minutes prior to i.p. acetic acid
Text: (b) Acetic acid method, according to Koster, Anderson & de Beer (Fed. Proced., 18, 1959, 412, 1, 626)
Intraperitoneal injection of a dilute acetic acid solution induces, in mice, characteristic writhing movements which are repeated due to the effect of pain.

[5] = system: carrageenin-induced edema; assay: Localized carrageenin-induced edema method; assay type: in vivo; conditions: rats, 100 mg/kg oral one hour before, with, and 1 and 2.5 hours after carrageenin
Procedure: 0.1 ml of a 1% carrageenin solution is injected at time O in the metatarsal flexor muscles of the right hind limb of rats.
The animals of the treated group are additionally orally administered 100 mg/kg of the test derivative, respectively one hour prior to, and then simultaneously with the phlogogenic agent, and then one hour and 2.5 hours thereafter. The determinations effected with a ROCH micrometer at times 0, 1 hr, 2 hrs, 3 hrs and 5 hrs after carrageenin administration make it possible to determine the percent anti-inflammatory activity, as a function of time.

[6] = system: ovalbumin-induced systemic edema; assay: Ovalbumin-induced systemic edema method; assay type: in vivo; conditions: rats, 100 mg/kg oral one hour before and with ovalbumin
Procedure: Rats are administered a simultaneous intraperitoneal injection of 1 ml ovalbumin and 0.5 ml of a 1% aqueous Evans Blue solution. The animals of the treated group are additionally orally administered 100 mg/kg of the test derivative, one hour prior to ovalbumin administration and then simultaneously with said ovalbumin administration. The intensity of the phenomenon thus induced is rated according to a scale from 1 to 5, according to the progress of the inflammatory syndrome. The determinations are effected after 2 hours and after 3 hours. Thus are determined the mean intensity of the edema and the percent decrease of the edema reaction.

Structure (SMILES) | inhibition at 100 mg/kg [1] [%] | inhibition at 100 mg/kg [2] [%] | percent agglomerates formed by 5 RBC (Red blood cells [3]; 25 μg per tube) [%] | percent agglomerates formed by 4 RBC (Red blood cells [3]; 25 μg per tube) [%] | percent agglomerates formed by 3 RBC (Red blood cells [3]; 25 μg per tube) [%] | percent agglomerates formed by 2 RBC (Red blood cells [3]; 25 μg per tube) [%] | percent free red blood cells (size 1) (Red blood cells [3]; 25 μg per tube) [%] | percent agglomerates formed by 5 RBC (Red blood cells [3]; 50 μg per tube) [%] | percent agglomerates formed by 4 RBC (Red blood cells [3]; 50 μg per tube) [%] | percent agglomerates formed by 3 RBC (Red blood cells [3]; 50 μg per tube) [%] | percent agglomerates formed by 2 RBC (Red blood cells [3]; 50 μg per tube) [%] | percent free red blood cells (size 1) (Red blood cells [3]; 50 μg per tube) [%] | percent agglomerates formed by 4 RBC (Red blood cells [3]; 100 μg per tube) [%] | percent agglomerates formed by 3 RBC (Red blood cells [3]; 100 μg per tube) [%] | percent agglomerates formed by 2 RBC (Red blood cells [3]; 100 μg per tube) [%] | percent free red blood cells (size 1) (Red blood cells [3]; 100 μg per tube) [%] | percent agglomerates formed by 4 RBC (Red blood cells [3]; 200 μg per tube) [%] | percent agglomerates formed by 3 RBC (Red blood cells [3]; 200 μg per tube) [%] | percent agglomerates formed by 2 RBC (Red blood cells [3]; 200 μg per tube) [%] | percent free red blood cells (size 1) (Red blood cells [3]; 200 μg per tube) [%] | also measured
CC(=O)N1CCc2ccsc2C1=O [Derivative n°11, 6-Acetyl-7-oxo-4,5,6,7-tetrahydro-thieno[2,3-c]-pyridine] | 63 | 92.8 | 2 | 2 | 14 | 22 | 60 | 1 | 2 | 10 | 22 | 65 | 1 | 5 | 13 | 81 | 1 | 2 | 14 | 83 | percent aggregates, size of agglomerates 5 (Red blood cells [4]; reference tests 8 or 9): 1%; percent aggregates, size of agglomerates 4 (Red blood cells [4]): 2%; percent aggregates, size of agglomerates 3 (Red blood cells [4]): 4%; percent aggregates, size of agglomerates 2 (Red blood cells [4]): 15%; percent aggregates, size of agglomerates 1 (Red blood cells [4]): 78%; mean percent antalgia after 30 min. (mouse): 65%; mean percent antalgia after 1 hr (mouse): 61%; mean percent antalgia after 2 hrs (mouse): 57%; mean percent antalgia after 3 hrs (mouse): 50%; percent antalgia (mice): 71%; Percent anti-inflammatory activity after 1 hour [5]: 41%; Percent anti-inflammatory activity after 2 hours [5]: 50%; Percent anti-inflammatory activity After 3 hours [5]: 58%; Percent decrease of the edema reaction After 2 hours [6]: 45%; Percent decrease of the edema reaction After 3 hours [6]: 55%
O=C1NCCc2ccsc21 [Derivative n°12, 7-Oxo-4,5,6,7-tetrahydro-thieno[2,3-c]pyridine] | 62.7 | 90.6 | 1 | 2 | 15 | 21 | 61 | 2 | 2 | 12 | 20 | 64 | 2 | 2 | 18 | 78 | 1 | 1 | 9 | 89 | percent aggregates, size of agglomerates 4 (Red blood cells [4]): 1%; percent aggregates, size of agglomerates 3 (Red blood cells [4]): 3%; percent aggregates, size of agglomerates 2 (Red blood cells [4]): 14%; percent aggregates, size of agglomerates 1 (Red blood cells [4]): 82%; mean percent antalgia after 30 min. (mouse): 81%; mean percent antalgia after 1 hr (mouse): 78%; mean percent antalgia after 2 hrs (mouse): 73%; mean percent antalgia after 3 hrs (mouse): 67%; percent antalgia (mice): 77%; Percent anti-inflammatory activity after 1 hour [5]: 42%; Percent anti-inflammatory activity after 2 hours [5]: 54%; Percent anti-inflammatory activity After 3 hours [5]: 61%; Percent decrease of the edema reaction After 2 hours [6]: 53%; Percent decrease of the edema reaction After 3 hours [6]: 64%
